The results in this text go back to US8618095B2 (Rigel Pharmaceuticals, Inc., priority 2010, dated 2013).

Counter-ions that a name gives are not always drawn.

One may read the IC50 as the concentration that inhibits the measured activity by half.

The subject of one test is Human mast cells (CHMC). Briefly: LD Tryptase release assay in CHMC (mast cell activation induced by FcγR cross-linking). It counts as cell-based. The note with it: Homo sapiens, Mast cell, anti-IgG stimulation, activity of tryptase released upon degranulation. The procedure, abridged:
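Mast cells derived from CD38-negative progenitors were preincubated 1 h at 37 °C with compound in HEPES-buffered saline (pH 7.4, 0.1% BSA, compound diluted in buffer with 2% MeOH/1% DMSO). Cells were then stimulated 60 min with anti-human IgG (final 1 μg/mL). Released tryptase was measured on Z-Ala-Lys-Arg-AMC (30 min, room temperature, 355/460 nm) to give the IC50.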
As for `CN(c1ccc(Nc2ncc(F)c(Nc3ccc4c(n3)NC(=O)C(C)(C)O4)n2)cn1)C1CCOCC1` [Compound 143, N4-(2,2-dimethyl-3,4-dihydro-3-oxo-2H-pyrido[3,2-b][1,4]oxazin-6-yl)-5-fluoro-N2-[6-(methyl(tetrahydro-2H-pyran-4-yl)amino)pyridin-3-yl]-2,4-pyrimidinediamine], the half-inhibitory concentration (IC50) was less than 100 nM.
As for `CC1(C)Oc2ccc(Nc3nc(Nc4ccc(N5CCC6(CCOC6)CC5)nc4)ncc3F)nc2NC1=O` [Compound 144, N4-(2,2-dimethyl-3,4-dihydro-3-oxo-2H-pyrido[3,2-b][1,4]oxazin-6-yl)-5-fluoro-N2-[6-(2-oxa-8-azaspiro[4.5]decan-8-yl)pyridin-3-yl]-2,4-pyrimidinediamine], the IC50 was in the range of 100 to 500 nM.
Still for that read-out and setting: for `CC1(C)Oc2ccc(Nc3nc(Nc4ccc(N5CCO[C@@H](CF)C5)nc4)ncc3F)nc2NC1=O` [Compound 145, N4-(2,2-dimethyl-3,4-dihydro-3-oxo-2H-pyrido[3,2-b][1,4]oxazin-6-yl)-5-fluoro-N2-[6-((2R)-2-(fluoromethyl)morpholino)pyridin-3-yl]-2,4-pyrimidinediamine] the value was less than 100 nM; for `CC1(C)Oc2ccc(Nc3nc(Nc4ccc(N5CC(O)C5)nc4)ncc3F)nc2NC1=O` [Compound 146, N4-(2,2-dimethyl-3,4-dihydro-3-oxo-2H-pyrido[3,2-b][1,4]oxazin-6-yl)-5-fluoro-N2-[6-(3-hydroxyazetidin-1-yl)pyridin-3-yl]-2,4-pyrimidinediamine], 1000 to 100000 nM.
As for `CN(C)c1ccc(Nc2ncc(F)c(Nc3ccc4c(n3)NC(=O)C(C)(C)O4)n2)cn1` [Compound 147, N4-(2,2-dimethyl-3,4-dihydro-3-oxo-2H-pyrido[3,2-b][1,4]oxazin-6-yl)-5-fluoro-N2-[6-(dimethylamino)pyridin-3-yl]-2,4-pyrimidinediamine], the concentration for half-maximal inhibition (IC50) was in the range of 100 to 500 nM.
Still for that read-out and setting: then `CCCN1C(=O)COc2ccc(Nc3nc(Nc4ccc(N5CCOCC5)c(C(F)(F)F)c4)ncc3F)nc21` [Compound 148, N4-(3,4-dihydro-3-oxo-4-propyl-2H-pyrido[3,2-b][1,4]oxazin-6-yl)-5-fluoro-N2-[4-morpholino-3-(trifluoromethyl)phenyl]-2,4-pyrimidinediamine], with less than 100 nM; and `CC1(C)Oc2ccc(Nc3nc(Nc4ccc(N5CCS(=O)(=O)CC5)cc4)ncc3F)nc2NC1=O` [Compound 149, N4-(2,2-dimethyl-3,4-dihydro-3-oxo-2H-pyrido[3,2-b][1,4]oxazin-6-yl)-5-fluoro-N2-[4-(1,1-dioxidothiomorpholin-4-yl)phenyl]-2,4-pyrimidinediamine], with less than 100 nM; and `CC1(C)Oc2ccc(Nc3nc(Nc4ccc(N5CCC(C(N)=O)CC5)cc4)ncc3F)nc2NC1=O` [Compound 150, N4-(2,2-dimethyl-3,4-dihydro-3-oxo-2H-pyrido[3,2-b][1,4]oxazin-6-yl)-5-fluoro-N2-[4-(4-(aminocarbonyl)piperidin-1-yl)phenyl]-2,4-pyrimidinediamine], with 100 to 500 nM.
Still for that read-out and setting: for `CC1(C)Oc2ccc(Nc3nc(Nc4ccc(N5CCNC(=O)C5)cc4)ncc3F)nc2NC1=O` [Compound 151, N4-(2,2-dimethyl-3,4-dihydro-3-oxo-2H-pyrido[3,2-b][1,4]oxazin-6-yl)-5-fluoro-N2-[4-(3-oxopiperazin-1-yl)phenyl]-2,4-pyrimidinediamine] the value was 100 to 500 nM; for `COC1CCN(c2ccc(Nc3ncc(F)c(Nc4ccc5c(n4)NC(=O)C(C)(C)O5)n3)cc2)CC1` [Compound 152, N4-(2,2-dimethyl-3,4-dihydro-3-oxo-2H-pyrido[3,2-b][1,4]oxazin-6-yl)-5-fluoro-N2-[4-(4-methoxypiperidin-1-yl)phenyl]-2,4-pyrimidinediamine], less than 100 nM; for `CC1(C)Oc2ccc(Nc3nc(Nc4ccc(N5CCSCC5)cc4)ncc3F)nc2NC1=O` [Compound 153, N4-(2,2-dimethyl-3,4-dihydro-3-oxo-2H-pyrido[3,2-b][1,4]oxazin-6-yl)-5-fluoro-N2-[4-thiomorpholinophenyl]-2,4-pyrimidinediamine], 1000 to 100000 nM.
Consider `CC1(C)Oc2ccc(Nc3nc(Nc4ccc(N5CCC(C#N)CC5)cc4)ncc3F)nc2NC1=O` [Compound 154, N4-(2,2-dimethyl-3,4-dihydro-3-oxo-2H-pyrido[3,2-b][1,4]oxazin-6-yl)-5-fluoro-N2-[4-(4-cyanopiperidin-1-yl)phenyl]-2,4-pyrimidinediamine], for which the IC50 lay in the range of 100 to 500 nM.
On to `COCC1CCN(c2ccc(Nc3ncc(F)c(Nc4ccc5c(n4)NC(=O)C(C)(C)O5)n3)cc2)CC1` [Compound 155, N4-(2,2-dimethyl-3,4-dihydro-3-oxo-2H-pyrido[3,2-b][1,4]oxazin-6-yl)-5-fluoro-N2-[4-(4-(methoxymethyl)piperidin-1-yl)phenyl]-2,4-pyrimidinediamine], for which the concentration for half-maximal inhibition (IC50) lay within 100 to 500 nM.
Turning to `CC1(C)Oc2ccc(Nc3nc(Nc4ccc(N5CCC6(CCCO6)CC5)cc4)ncc3F)nc2NC1=O` [Compound 156, N4-(2,2-dimethyl-3,4-dihydro-3-oxo-2H-pyrido[3,2-b][1,4]oxazin-6-yl)-5-fluoro-N2-[4-(1-oxa-8-azaspiro[4.5]decan-8-yl)phenyl]-2,4-pyrimidinediamine], the IC50 was in the range of 100 to 500 nM.
Turning to `CC1(C)Oc2ccc(Nc3nc(Nc4ccc(N5CCC6(CCOC6)CC5)cc4)ncc3F)nc2NC1=O` [Compound 157, N4-(2,2-dimethyl-3,4-dihydro-3-oxo-2H-pyrido[3,2-b][1,4]oxazin-6-yl)-5-fluoro-N2-[4-(2-oxa-8-azaspiro[4.5]decan-8-yl)phenyl]-2,4-pyrimidinediamine], the IC50 fell in the range of 100 to 500 nM.
Same read-out and setting: for `CC1(C)Oc2ccc(Nc3nc(Nc4ccc(N5CCC6(CC5)COC6)cc4)ncc3F)nc2NC1=O` [Compound 158, N4-(2,2-dimethyl-3,4-dihydro-3-oxo-2H-pyrido[3,2-b][1,4]oxazin-6-yl)-5-fluoro-N2-[4-(2-oxa-7-azaspiro[3.5]nonan-7-yl)phenyl]-2,4-pyrimidinediamine] the value was 100 to 500 nM; for `Cc1cc(Nc2ncc(F)c(Nc3ccc4c(n3)NC(=O)C(C)(C)O4)n2)ccc1N1CCC2(CCOC2)CC1` [Compound 159, N4-(2,2-dimethyl-3,4-dihydro-3-oxo-2H-pyrido[3,2-b][1,4]oxazin-6-yl)-5-fluoro-N2-[3-methyl-4-(2-oxa-8-azaspiro[4.5]decan-8-yl)phenyl]-2,4-pyrimidinediamine], 500 to 1000 nM.

Still in this test, the particulars now being: anti-IgG stimulation, activity of tryptase released upon degranulation.
Consider `CC1(C)Oc2ccc(Nc3nc(Nc4ccc(N5CCOCC5)nc4)ncc3F)nc2NC1=O` [Compound 140, N4-(2,2-dimethyl-3,4-dihydro-3-oxo-2H-pyrido[3,2-b][1,4]oxazin-6-yl)-5-fluoro-N2-[6-morpholinopyridin-3-yl]-2,4-pyrimidinediamine hydrochloric acid salt], for which the 50% inhibitory concentration (IC50) lay in the range of 500 to 1000 nM.
On the same count and under the same terms, then `CC1(C)Oc2ccc(Nc3nc(Nc4ccc(N5CCOCC5)nc4)ncc3F)nc2NC1=O` [Compound 141, N4-(2,2-dimethyl-3,4-dihydro-3-oxo-2H-pyrido[3,2-b][1,4]oxazin-6-yl)-5-fluoro-N2-[6-morpholinopyridin-3-yl]-2,4-pyrimidinediamine benzenesulfonic acid salt], with 100 to 500 nM; and `CC1(C)Oc2ccc(Nc3nc(Nc4ccc(N5CCOCC5)nc4)ncc3F)nc2NC1=O` [Compound 142, N4-(2,2-dimethyl-3,4-dihydro-3-oxo-2H-pyrido[3,2-b][1,4]oxazin-6-yl)-5-fluoro-N2-[6-morpholinopyridin-3-yl]-2,4-pyrimidinediamine ethanesulfonic acid salt], with 100 to 500 nM.
